Each structure is given as a SMILES string.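 1) Cells in 96-well plates. 2) Compound, 48 h, 5 concentrations. 3) Linear interpolation between surrounding doses. 4) Unreached endpoint = highest concentration. At the GI50, growth is halved. Definition used: TGI = concentration required for complete inhibition of growth.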 Where only a bound is given, the exact number is not on record here.

Some test systems named below: A549 NSCLC; COLO 205 colon; HS 578T breast; SF-295 CNS; SN12C renal; SW-620 colon; T-47D breast; HCC-2998 colon.
Holding throughout (assay): NCI tumour cell line growth inhibition, 48 h

Regarding `CC1(C)OC2C(=O)C=C(COCc3ccccc3)C2O1` (stereo not drawn), the TGI in the experiment with A549 NSCLC is over 100 µM; in the experiment on COLO 205 colon, 41 µM; with HS 578T breast it was over 100 µM; in the experiment on SF-295 CNS it was over 100 µM; with SN12C renal it was over 100 µM; in the experiment on SW-620 colon, 52.2 µM. Also, the TGI in the experiment on T-47D breast is 56.3 µM.
Consider `C[CH2][Pb]([CH2]C)([CH2]C)[O]C(=O)c1ccc2ccccc2n1`, for which the GI50 with A549 NSCLC, in the experiment on COLO 205 colon, with HCC-2998 colon, with HS 578T breast, with SF-295 CNS and with SN12C renal was over 10 µM each time. Moreover, the GI50 with SW-620 colon and with T-47D breast was over 10 µM in each case. Moreover, the TGI in the experiment with A549 NSCLC, in the experiment with COLO 205 colon, in the experiment with HCC-2998 colon, with HS 578T breast, in the experiment with SF-295 CNS and in the experiment on SN12C renal was over 10 µM throughout. In addition, the TGI in the experiment with SW-620 colon and in the experiment with T-47D breast was over 10 µM each time.
For `CSC(=S)N/N=C(\C)c1cccc(C)n1`, the TGI in the experiment on A549 NSCLC was 29.1 µM; in the experiment on COLO 205 colon it was 2.82 µM; in the experiment with HCC-2998 colon, 30.4 µM; in the experiment with HS 578T breast, over 89 µM; in the experiment with SF-295 CNS, 24.8 µM; in the experiment with SN12C renal, 21.9 µM. For the same compound, the TGI in the experiment with SW-620 colon is over 56.9 µM; in the experiment on T-47D breast, over 67.5 µM.
For the compound `COC1O[C@@H]2C[C@H]3C(C)(C)CCC[C@]3(C)C3=CCCC1[C@@]32C` (stereo partly drawn), the GI50 in the experiment with A549 NSCLC, in the experiment with COLO 205 colon, in the experiment with HS 578T breast, in the experiment on SF-295 CNS, in the experiment with SN12C renal and in the experiment with SW-620 colon was over 100 µM in each case. For the same compound, the GI50 in the experiment on T-47D breast is over 100 µM. Also, the TGI in the experiment with A549 NSCLC, in the experiment with COLO 205 colon, with HS 578T breast, in the experiment on SF-295 CNS, in the experiment with SN12C renal and in the experiment on SW-620 colon was over 100 µM throughout. In addition, the TGI in the experiment with T-47D breast is over 100 µM.
`CCCCn1c(=O)c2c(nc3n2CCCN3CCc2ccc(OCC(=O)NCCN(CC)CC)cc2)n(CCCC)c1=O`: the GI50 was 7.12 µM with A549 NSCLC; 1.78 µM in the experiment with COLO 205 colon; 2.93 µM in the experiment on HCC-2998 colon; 1.76 µM in the experiment on HS 578T breast; 0.877 µM with SF-295 CNS; 5.76 µM in the experiment with SN12C renal. In addition, the GI50 in the experiment on SW-620 colon is 4.86 µM; in the experiment with T-47D breast, 4.3 µM. The TGI in the experiment with A549 NSCLC turned out to be 15.4 µM; in the experiment on COLO 205 colon, 7.38 µM; in the experiment with HCC-2998 colon, 9.73 µM; with HS 578T breast it was 11.2 µM; in the experiment with SF-295 CNS, 1.95 µM; in the experiment on SN12C renal it was 15.3 µM. For the same compound, the TGI in the experiment on SW-620 colon stood at 11.2 µM; with T-47D breast it was 13.7 µM.
Consider `CN(CCCCCl)P(=O)(OCCS(=O)(=O)CC(NC(=O)CCC(N)C(=O)O)C(=O)NC(C(=O)O)c1ccccc1)OCC1OC(n2cc(F)c(=O)[nH]c2=O)CC1O` (stereo not drawn), for which the GI50 is under 0.0506 µM with A549 NSCLC; 10.1 µM with COLO 205 colon; 5.89 µM in the experiment on HS 578T breast; 0.0368 µM in the experiment on SF-295 CNS; 0.41 µM in the experiment with SN12C renal; 1.28 µM in the experiment with SW-620 colon. Moreover, in the experiment with T-47D breast, the GI50 is 5.65 µM. Further, the TGI is over 100 µM in the experiment on A549 NSCLC; over 100 µM in the experiment with COLO 205 colon; 97.6 µM with HS 578T breast; over 53.8 µM in the experiment on SF-295 CNS; 16.9 µM in the experiment on SN12C renal; over 64.4 µM in the experiment with SW-620 colon. Further, in the experiment on T-47D breast, the TGI is over 100 µM.
For `C[C@@H]1O[C@@H](OC[C@H]2O[C@@H](OCCc3ccc(O)c(O)c3)[C@H](O)[C@@H](O)[C@@H]2OC(=O)/C=C/c2ccc(O)c(O)c2)[C@H](O)[C@H](O)[C@H]1O`, the GI50 is over 100 µM in the experiment on A549 NSCLC; over 100 µM in the experiment with COLO 205 colon; 69.3 µM in the experiment on HCC-2998 colon; over 100 µM with HS 578T breast; over 100 µM in the experiment on SF-295 CNS; over 100 µM in the experiment with SN12C renal. The GI50 in the experiment with SW-620 colon and in the experiment on T-47D breast was over 100 µM throughout. In addition, the TGI with A549 NSCLC, in the experiment with COLO 205 colon, in the experiment on HCC-2998 colon, in the experiment on HS 578T breast, in the experiment on SF-295 CNS and in the experiment on SN12C renal was over 100 µM in each case. Moreover, the TGI in the experiment with SW-620 colon and with T-47D breast was over 100 µM in each case.
Regarding `CCN(Cc1ccc(Cl)s1)c1ccc(CO)c(Cl)c1`, the GI50 is 1.08 µM in the experiment with A549 NSCLC; 1.73 µM in the experiment on COLO 205 colon; 5.81 µM with HCC-2998 colon; 11.7 µM with HS 578T breast; 0.352 µM with SF-295 CNS; 7.08 µM in the experiment on SN12C renal. The GI50 was 0.506 µM in the experiment on SW-620 colon and 0.121 µM with T-47D breast. Further, the TGI in the experiment on A549 NSCLC is 18.7 µM; in the experiment on COLO 205 colon, 5.99 µM; in the experiment with HCC-2998 colon it was 28.6 µM; in the experiment with HS 578T breast it was over 60.4 µM; with SF-295 CNS, 15.9 µM; in the experiment on SN12C renal, 22.3 µM. In addition, the results for the TGI in the experiment with SW-620 colon and in the experiment with T-47D breast were over 55.2 µM and 0.582 µM, respectively.
Regarding `CCOc1nc(N)nc(C)c1N=Nc1ccc(Cl)cc1`, the TGI in the experiment on A549 NSCLC is over 100 µM; in the experiment with COLO 205 colon it was over 100 µM; in the experiment with HS 578T breast, 38.4 µM; in the experiment with SF-295 CNS it was 94.1 µM; with SN12C renal, 86.4 µM; in the experiment with SW-620 colon, over 100 µM. In the experiment on T-47D breast, the TGI is over 100 µM.
`O=C(Oc1cccnc1)c1ccsc1Nc1ccnc(C(F)(F)F)c1`: the GI50 was 7.68 µM in the experiment with A549 NSCLC; 4.89 µM with COLO 205 colon; 11 µM in the experiment with HCC-2998 colon; 24 µM in the experiment with SF-295 CNS; 4.44 µM in the experiment with SN12C renal; 4.09 µM in the experiment with SW-620 colon. The GI50 in the experiment with T-47D breast is 13.8 µM. In addition, the TGI was over 100 µM with A549 NSCLC; 24.6 µM with COLO 205 colon; 24 µM in the experiment with HCC-2998 colon; over 100 µM in the experiment with SF-295 CNS; over 100 µM in the experiment on SN12C renal; over 100 µM in the experiment with SW-620 colon. The compound further registered a TGI in the experiment with T-47D breast of 68 µM.
